Laboratory results: US5128362A, “1-aminomethyl-1,2,3,4-tetrahydronaphthalenes” (Abbott Laboratories, priority 1990, dated 1992)
Structures can show the parent of a compound that is named as a salt. Where two headings read alike, the source gives them in different places.

Tests used:
[1] = biological target: T1, alpha 1 receptor (Rattus norvegicus, UniProt P15823); assay: Radioligand binding, [3H]-prazosin, rat liver homogenates
T1 construct: rat liver homogenates; from tissue; host or cells: rat liver homogenates
T1 sequence (P15823 1-515): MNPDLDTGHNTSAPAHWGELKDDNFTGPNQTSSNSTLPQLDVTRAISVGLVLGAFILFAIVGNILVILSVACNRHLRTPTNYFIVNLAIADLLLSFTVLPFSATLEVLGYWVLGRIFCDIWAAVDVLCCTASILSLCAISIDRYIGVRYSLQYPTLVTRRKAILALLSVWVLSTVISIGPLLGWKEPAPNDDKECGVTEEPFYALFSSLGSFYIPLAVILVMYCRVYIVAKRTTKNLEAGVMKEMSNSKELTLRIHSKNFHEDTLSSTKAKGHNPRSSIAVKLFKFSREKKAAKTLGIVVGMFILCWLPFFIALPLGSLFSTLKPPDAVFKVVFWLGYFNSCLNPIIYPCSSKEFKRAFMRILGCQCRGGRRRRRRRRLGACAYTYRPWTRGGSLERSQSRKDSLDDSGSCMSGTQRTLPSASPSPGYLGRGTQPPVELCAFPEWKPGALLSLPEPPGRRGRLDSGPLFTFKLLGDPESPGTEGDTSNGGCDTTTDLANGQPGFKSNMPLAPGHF
Protocol: (§1) The compounds were assessed for alpha-adrenergic receptor subtype selectivity by use of radioligand binding techniques as described previously (DeBernardis et. al. J. Med. Chem. 28, 1398 (1985)).

[2] = biological target: T2, alpha 2 receptor (Rattus norvegicus, UniProt P22909); assay: Radioligand binding, [3H]rauwolscine, rat cerebral cortices; conditions: read-out: Ki alpha-2
T2 construct: rat cerebral cortices; from tissue; host or cells: rat cerebral cortices
T2 sequence (P22909 1-465): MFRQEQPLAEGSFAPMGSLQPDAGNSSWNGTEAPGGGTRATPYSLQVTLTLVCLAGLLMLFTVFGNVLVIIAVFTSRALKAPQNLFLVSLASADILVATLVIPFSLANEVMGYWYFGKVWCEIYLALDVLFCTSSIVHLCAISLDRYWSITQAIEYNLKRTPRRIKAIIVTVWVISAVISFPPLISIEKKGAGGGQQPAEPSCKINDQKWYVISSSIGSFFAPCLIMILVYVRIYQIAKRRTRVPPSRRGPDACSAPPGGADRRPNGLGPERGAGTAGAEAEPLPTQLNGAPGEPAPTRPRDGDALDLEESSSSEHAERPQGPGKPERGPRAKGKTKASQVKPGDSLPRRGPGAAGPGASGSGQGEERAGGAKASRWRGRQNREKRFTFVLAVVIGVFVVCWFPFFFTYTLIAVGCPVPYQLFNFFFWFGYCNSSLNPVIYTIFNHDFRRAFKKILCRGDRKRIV
Protocol: as §1

[3] = system: alpha 2 receptor; assay: as above; conditions: Ki alpha 1/Ki alpha-2
Protocol: as §1

[4] = system: norepinephrine uptake; assay: Uptake inhibition, tritiated norepinephrine, rat brain synaptosomes; type: biochemical, Sprague-Dawley derived rats; conditions: 0.1 μM tritiated amine, 37° C., 4 minutes, read-out: Biogenic Amine Uptake Inhibition IC50 Norephinephrine
Text: (§2) Sprague-Dawley derived rats of either sex, weighing about 180-250 g, were killed by decapitation. The brains were immediately removed, placed on a glass plate chilled over crushed ice and dissected according to a modification of the method of Glowinski and Iversen (J. Neurochem. 13, 655-669, 1966). First, the rhombencephalon was separated by transverse section and discarded. The remaining tissue was bisected by a midline sagittal cut. The hypothalamus was removed using the anterior and posterior reference points, respectively. The hippocampus was peeled away and discarded and the striata were exposed and removed. Frontal cortical tissue was dissected from remaining brain structures. […]
(§3) Uptake studies were conducted according to the method of Synder and Coyle (J. Pharmacol. Exp. Ther. 165, 78-86, 1969) with minor modifications. Usually a 0.1 ml aliquot of the synaptosomal preparation was incubated in a mixture of 0.75 ml of modified Krebs-Ringer buffer, 0.05 ml of the drug being evaluated for uptake inhibition, and 0.1 ml of a 1 μM tritiated amine (norepinephrine, serotonin or dopamine) solution (final concentration 0.1 μM) for a total volume of 1 ml. […] All samples were cold and dark adapted and counted in a Tri-Carb® (Packard) Model 460 Liquid Scintillation Spectrometer. Corrections were automatically made for quenching by the external standard method and for luminescence. […]

[5] = system: serotonin uptake; assay: Uptake inhibition, tritiated serotonin, rat brain synaptosomes; type: biochemical, Sprague-Dawley derived rats; conditions: 0.1 μM tritiated amine, 37° C., 4 minutes, read-out: Biogenic Amine Uptake Inhibition IC50 Serotonin
Text: as §2, §3

[6] = system: dopamine uptake; assay: Uptake inhibition, tritiated dopamine, rat brain synaptosomes; type: biochemical, Sprague-Dawley derived rats; conditions: 0.1 μM tritiated amine, 37° C., 4 minutes, read-out: Biogenic Amine Uptake Inhibition IC50 Dopamine
Text: as §2, §3

[7] = rat cerebral cortices, [3H]rauwolscine

alpha-2 - Selectivity Ki alpha 1/Ki alpha-2 [3]	Ki [2]	SMILES	also measured
11	–	COc1ccc2c(c1)CCC2CN1CCC(c2ccccc2)C1 (stereo not shown) [Example 152, 5-Methoxy-1-(3-phenylpyrrolidino-1-methyl) indane hydrochloride]	Ki [1]: 51 nM; Ki [2, 7]: 4.8 nM
93	1.3 nM	CN(c1ccc2c(c1)CCCC2CN1CCC(c2ccccc2)C1)S(C)(=O)=O (stereo not shown) [Example 193, 6-(N-methylmethylsulfonamido)-1-(3-phenylpyrrolidino-1-methyl)tetralin hydrochloride]	–
430	3.5 nM	COc1ccc2c(c1)CCCC2CN(C)CCC1CCCS1 (stereo not shown) [Example 6h, 1-((N-methylamino)methyl-N-(2-(2-tetrahydrothienyl)ethyl)) 6-methoxy tetralin hydrochloride]	–
71	2.5 nM	COc1ccc2c(c1)CCC2CN1CCC(c2cccs2)C1 (stereo not shown) [Example 151, 5-Methoxy-1-(3-(2-thienyl)pyrrolidino-1-methyl) indane hydrochloride]	–
95	6.9 nM	COc1ccc(C)c2c1CCCC2CN(C)CCc1cccs1 (stereo not shown) [Example 36, 1-((N-Methylamino)methyl-N-(2-(2-thienyl)ethyl))-5-methoxy-8-methyl tetralin hydrochloride]	–

The remaining lines, values behind:

SMILES	alpha-2 - Selectivity Ki alpha 1/Ki alpha-2 [3]	Ki [2]	also measured
CN(CCc1cccs1)CC1CCCc2c(Cl)cccc21 (stereo not shown) [Example 129, 1-((N-Methylamino)methyl-N-(2-(2-thieny)ethyl))-5-chloro tetralin hydrochloride]	55	3.6 nM	–
Nc1ccc2c(c1)CCCC2CN1CCC(c2ccccc2)C1 (stereo not shown) [Example 156, 6-Amino-1-(3-phenylpyrrolidino-1-methyl) tetralin dihydrochloride]	21	6 nM	–
c1ccc(C2CCN(CC3CCCc4c3ccc3c4OCO3)C2)cc1 (stereo not shown) [Example 143a, 5,6-Methylenedioxy-1-(3-phenylpyrrolidino-1-methyl) tetralin methanesulfonate]	43	1.2 nM	–
Fc1ccc2c(c1)CCCC2CN1CCC(c2cccs2)C1 (stereo not shown) [Example 149, 6-Fluoro-1-(3-(2-thienyl)pyrrolidino-1-methyl) tetralin methanesulfonate]	45	–	Ki [2, 7]: 4.9 nM
Fc1cc2c(c3c1C(CN1CCC(c4ccccc4)C1)CCC3)OCO2 (stereo not shown) [Example 160, 8-Fluoro-5,6-methylenedioxy-1-(3-phenylpyrrolidino-1-methyl) tetralin hydrochloride]	–	–	IC50 [4]: 991 nM; IC50 [5]: 1840 nM; IC50 [6]: 2930 nM
CN(CCc1cccc(F)c1)CC1CCCc2c1ccc1c2OCCO1 (stereo not shown) [Example 167, 1-((N-Methylamino)methyl-N-(2-m-fluorophenethyl))-5,6-ethylenedioxy tetralin methanesulfonate]	85	4.2 nM	–
COc1ccc2c(c1)CCCC2CN1CCC(c2ccccc2)C1 (stereo not shown) [Example 121, 6-Methoxy-1-(3-phenylpyrrolidino-1-methyl) tetralin hydrochloride]	95	1 nM	–
COc1cccc2c1CCCC2CN1CCC(c2cccs2)C1 (stereo not shown) [Example 146, 5-Methoxy-1-(3-(2-thienyl)pyrrolidino-1-methyl) tetralin hydrochloride]	35	4.9 nM	–
